Results reported in ChEMBL document CHEMBL1201862, “PubChem BioAssay data set” (2004).
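Each compound was tested at five concentrations against cells in 96-well plates for 48 hours. GI50: concentration for 50% inhibition of growth.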 The source made the active and inactive calls. No stated cut-off is given here; in the data, active = GI50 up to about 1.1 µM and inactive = higher.

How the values were obtained:
Assay in all cases: growth of human tumour cells (NCI), 48 h
ACHN = system: ACHN
RXF 393 = system: RXF 393
SF-295 = system: SF-295
786-0 = system: 786-0
NCI-H522 = system: NCI-H522
SK-MEL-2 = system: SK-MEL-2
HL-60 = system: HL-60
NCI/ADR-RES = system: NCI/ADR-RES
OVCAR-3 = system: OVCAR-3
SK-MEL-5 = system: SK-MEL-5
OVCAR-4 = system: OVCAR-4
U-251 = system: U-251
HCT-116 = system: HCT-116
SR = system: SR
A498 = system: A498
MDA-MB-231 = system: MDA-MB-231
EKVX = system: EKVX
Malme-3M = system: Malme-3M
UACC-62 = system: UACC-62
OVCAR-8 = system: OVCAR-8
IGROV-1 = system: IGROV-1
LOX IMVI = system: LOX IMVI
A549 = system: A549
HOP-62 = system: HOP-62
HT-29 = system: HT-29
PC-3 = system: PC-3
MDA-MB-435 = system: MDA-MB-435
UACC-257 = system: UACC-257
UO-31 = system: UO-31
SK-OV-3 = system: SK-OV-3
HCT-15 = system: HCT-15
CCRF-CEM = system: CCRF-CEM
MDA-N = system: MDA-N
CAKI-1 = system: CAKI-1
Hs-578T = system: Hs-578T
NCI-H226 = system: NCI-H226
SW-620 = system: SW-620
SF-268 = system: SF-268
RPMI-8226 = system: RPMI-8226
OVCAR-5 = system: OVCAR-5
M14 = system: M14
SNB-75 = system: SNB-75
HCC 2998 = system: HCC 2998
K562 = system: K562
HOP-92 = system: HOP-92
NCI-H23 = system: NCI-H23
SNB-19 = system: SNB-19
KM12 = system: KM12
DU-145 = system: DU-145
MOLT-4 = system: MOLT-4
COLO 205 = system: COLO 205
SF-539 = system: SF-539
TK-10 = system: TK-10
SK-MEL-28 = system: SK-MEL-28
NCI-H460 = system: NCI-H460
SN12C = system: SN12C
T47D = system: T47D
MCF7 = system: MCF7

SMILES: O=[N+]([O-])c1ccc2[nH]nc(OCc3ccccn3)c2c1
- GI50 (ACHN): > 100 µM (inactive)
- GI50 (RXF 393): > 100 µM (inactive)
- GI50 (SF-295): 38.8 µM (inactive)
- GI50 (786-0): > 100 µM (inactive)
- GI50 (NCI-H522): > 100 µM (inactive)
- GI50 (SK-MEL-2): 82.2 µM (inactive)
- GI50 (HL-60): > 100 µM (inactive)
- GI50 (NCI/ADR-RES): > 100 µM (inactive)
- GI50 (OVCAR-3): 61 µM (inactive)
- GI50 (SK-MEL-5): > 100 µM (inactive)
- GI50 (OVCAR-4): > 100 µM (inactive)
- GI50 (U-251): 99.8 µM (inactive)
- GI50 (HCT-116): > 100 µM (inactive)
- GI50 (SR): > 100 µM (inactive)
- GI50 (A498): > 100 µM (inactive)
- GI50 (MDA-MB-231): > 100 µM (inactive)
- GI50 (EKVX): > 100 µM (inactive)
- GI50 (Malme-3M): > 100 µM (inactive)
- GI50 (UACC-62): > 100 µM (inactive)
- GI50 (OVCAR-8): > 100 µM (inactive)
- GI50 (IGROV-1): > 100 µM (inactive)
- GI50 (LOX IMVI): > 100 µM (inactive)
- GI50 (A549): > 100 µM (inactive)
- GI50 (HOP-62): > 100 µM (inactive)
- GI50 (HT-29): > 100 µM (inactive)
- GI50 (PC-3): > 100 µM (inactive)
- GI50 (MDA-MB-435): > 100 µM (inactive)
- GI50 (UACC-257): > 100 µM (inactive)
- GI50 (UO-31): > 100 µM (inactive)
- GI50 (SK-OV-3): 73.8 µM (inactive)
- GI50 (HCT-15): > 100 µM
- GI50 (CCRF-CEM): > 100 µM (inactive)
- GI50 (MDA-N): > 100 µM (inactive)
- GI50 (CAKI-1): > 100 µM (inactive)
- GI50 (Hs-578T): 35.2 µM (inactive)
- GI50 (NCI-H226): > 100 µM (inactive)
- GI50 (SW-620): > 100 µM (inactive)
- GI50 (SF-268): > 100 µM (inactive)
- GI50 (RPMI-8226): > 100 µM (inactive)
- GI50 (OVCAR-5): > 100 µM (inactive)
- GI50 (M14): > 100 µM (inactive)
- GI50 (SNB-75): 31.5 µM (inactive)
- GI50 (HCC 2998): > 100 µM (inactive)
- GI50 (K562): > 100 µM (inactive)
- GI50 (HOP-92): 35.7 µM (inactive)
- GI50 (NCI-H23): > 100 µM (inactive)
- GI50 (SNB-19): 50.5 µM (inactive)
- GI50 (KM12): > 100 µM (inactive)
- GI50 (DU-145): > 100 µM (inactive)
- GI50 (MOLT-4): > 100 µM (inactive)
- GI50 (COLO 205): > 100 µM (inactive)
- GI50 (SF-539): > 100 µM (inactive)
- GI50 (TK-10): 47.2 µM (inactive)
- GI50 (SK-MEL-28): > 100 µM (inactive)
- GI50 (NCI-H460): > 100 µM (inactive)
- GI50 (SN12C): > 100 µM (inactive)
- GI50 (T47D): 47 µM (inactive)

SMILES: O=c1[nH]nc(-c2ccccc2)n1O
- GI50 (ACHN): > 100 µM (inactive)
- GI50 (RXF 393): > 100 µM (inactive)
- GI50 (SF-295): > 100 µM (inactive)
- GI50 (786-0): > 100 µM (inactive)
- GI50 (NCI-H522): > 100 µM (inactive)
- GI50 (SK-MEL-2): > 100 µM (inactive)
- GI50 (HL-60): > 100 µM (inactive)
- GI50 (NCI/ADR-RES): > 100 µM (inactive)
- GI50 (OVCAR-3): > 100 µM (inactive)
- GI50 (SK-MEL-5): > 100 µM (inactive)
- GI50 (OVCAR-4): > 100 µM (inactive)
- GI50 (U-251): > 100 µM (inactive)
- GI50 (HCT-116): > 100 µM (inactive)
- GI50 (SR): > 100 µM (inactive)
- GI50 (A498): > 100 µM (inactive)
- GI50 (MDA-MB-231): > 100 µM (inactive)
- GI50 (EKVX): > 100 µM (inactive)
- GI50 (Malme-3M): > 100 µM (inactive)
- GI50 (UACC-62): > 100 µM (inactive)
- GI50 (OVCAR-8): > 100 µM (inactive)
- GI50 (IGROV-1): > 100 µM (inactive)
- GI50 (LOX IMVI): > 100 µM (inactive)
- GI50 (A549): > 100 µM (inactive)
- GI50 (HOP-62): > 100 µM (inactive)
- GI50 (HT-29): > 100 µM (inactive)
- GI50 (PC-3): > 100 µM (inactive)
- GI50 (MDA-MB-435): > 100 µM (inactive)
- GI50 (UACC-257): > 100 µM (inactive)
- GI50 (UO-31): > 100 µM (inactive)
- GI50 (SK-OV-3): > 100 µM (inactive)
- GI50 (HCT-15): > 100 µM
- GI50 (CCRF-CEM): > 100 µM (inactive)
- GI50 (MDA-N): > 100 µM (inactive)
- GI50 (CAKI-1): > 100 µM (inactive)
- GI50 (Hs-578T): > 100 µM (inactive)
- GI50 (NCI-H226): > 100 µM (inactive)
- GI50 (SW-620): > 100 µM (inactive)
- GI50 (SF-268): 91.4 µM (inactive)
- GI50 (RPMI-8226): > 100 µM (inactive)
- GI50 (OVCAR-5): > 100 µM (inactive)
- GI50 (M14): > 100 µM (inactive)
- GI50 (HCC 2998): > 100 µM (inactive)
- GI50 (K562): > 100 µM (inactive)
- GI50 (HOP-92): > 100 µM (inactive)
- GI50 (NCI-H23): > 100 µM (inactive)
- GI50 (SNB-19): > 100 µM (inactive)
- GI50 (MCF7): > 100 µM (inactive)
- GI50 (KM12): > 100 µM (inactive)
- GI50 (DU-145): > 100 µM (inactive)
- GI50 (MOLT-4): > 100 µM (inactive)
- GI50 (COLO 205): > 100 µM (inactive)
- GI50 (SF-539): > 100 µM (inactive)
- GI50 (TK-10): > 100 µM (inactive)
- GI50 (SK-MEL-28): > 100 µM (inactive)
- GI50 (NCI-H460): > 100 µM (inactive)
- GI50 (SN12C): > 100 µM (inactive)
- GI50 (T47D): > 100 µM (inactive)
